These results are taken from BindingDB's records for doi:10.1111/cbdd.12570 (University of Milano, 2015).

This test concerns the target Putative heat shock protein HSP 90-alpha A4 (Homo sapiens, UniProt Q58FG1). The test can be described thus: Fluorescence Polarization (FP) Assay. The procedure: The fluorescence polarization (FP) assay was performed as described in the reference (Bioorg Med Chem. 2010. 18:6031-6043).
In general terms: In fluorescence polarisation assays a small probe gives low polarisation when free and higher when bound to something large.

Structures are written as SMILES. Structures can show the parent of a compound that is named as a salt.

What is called IC50 is the concentration needed to halve the response being measured. A high value points to a need for much substance.

Sequence of Putative heat shock protein HSP 90-alpha A4 (Q58FG1 whole entry): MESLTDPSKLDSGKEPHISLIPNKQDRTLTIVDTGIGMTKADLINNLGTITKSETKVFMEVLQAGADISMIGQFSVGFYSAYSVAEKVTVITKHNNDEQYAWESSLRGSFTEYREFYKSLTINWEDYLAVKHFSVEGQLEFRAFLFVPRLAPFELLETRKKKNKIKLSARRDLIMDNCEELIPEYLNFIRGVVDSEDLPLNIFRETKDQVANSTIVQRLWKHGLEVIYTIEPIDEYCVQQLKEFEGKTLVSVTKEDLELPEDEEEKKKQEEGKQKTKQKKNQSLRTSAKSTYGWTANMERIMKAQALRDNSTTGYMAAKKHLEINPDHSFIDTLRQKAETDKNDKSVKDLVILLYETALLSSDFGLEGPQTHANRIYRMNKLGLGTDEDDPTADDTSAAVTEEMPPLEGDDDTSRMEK

As for `NCCON=C1CCCc2c(-c3ccc(C(N)=O)cc3)noc21` [4-(7-(2-Aminoethoxyimino)-4,5,6,7-tetrahydrobenzo[d]isoxazol-3-yl)-benzamide hydrochloride (21c)], the IC50 is greater than 100 µM. `NC(=O)c1ccc(-c2noc3c2CCCC3O)cc1` (configuration not stated) [4-(7-Hydroxy-4,5,6,7-tetrahydro-benzo[d]isoxazol-3-yl)benzamide (22)] registered a 50% inhibitory concentration (IC50) greater than 100 µM. As for `NC(=O)c1ccc(-c2noc3c2CCCC3=NO)cc1` [4-(7-Hydroxyimino-4,5,6,7-tetrahydro-benzo[d]isoxazol-3-yl)benzamide (21a)], the IC50 was greater than 100 µM. In turn, `O=C1NCCc2c(-c3cc(Cl)c(O)cc3O)noc21` [3-(5-chloro-2,4-dihydroxyphenyl)-5,6-dihydroisoxazolo[5,4-c]pyridin-7(4H)-one (9b)] registered a concentration for half-maximal inhibition (IC50) of 1.6 µM. In other words, the single-digit micromolar range.

As to `C=CCNC1=C2C[C@@H](C)C[C@H](OC)C[C@@H](C)/C=C/[C@H](OC(N)=O)[C@@H](OC)/C=C\C=C(/C)C(=O)NC(=CC1=O)C2=O` [17-AAG], half-maximal inhibition (IC50) required 1.09 µM.

Molecule `CN1CCc2c(-c3cc(Cl)c(O)cc3O)noc2C1=O` [3-(5-chloro-2,4-dihydroxyphenyl)-5,6-dihydro-6-methylisoxazolo[5,4-c]pyridin-7(4H)-one (9a)] yielded an IC50 of 10 µM. On to `NC(=O)c1ccc(-c2noc3c2CCCC3=NOCCN2CCOCC2)cc1` [4-(7-(2-Morpholin-4-yl-ethoxyimino)-4,5,6,7-tetrahydrobenzo[d]isoxazol-3-yl)benzamide (21b)], for which the IC50 was greater than 100 µM. In the case of `O=C1CCCc2c(-c3cc(Cl)c(O)cc3O)noc21` [3-(5-chloro-2,4-dihydroxyphenyl)-5,6-dihydrobenzo[d]isoxazol-7(4H)-one (13)] it was 4.8 µM; in that of `NCCON=C1CCCc2c(-c3cc(Cl)c(O)cc3O)noc21` [3-(5-chloro-2,4-dihydroxyphenyl)-5,6-dihydro-4H-benzo[d]isoxazol-7-one O-(2-aminoethyl)-oxime hydrochloride (16)], 6.3 µM; in that of `Oc1cc(O)c(-c2noc3c2CCCC3O)cc1Cl` (configuration not stated) [3-(5-chloro-2,4-dihydroxyphenyl)-4,5,6,7-tetrahydro-benzo[d]isoxazol-7-ol (14)], 26 µM. `NC(=O)c1ccc(-c2noc3c2CCCC3=O)cc1` [4-(7-Oxo-4,5,6,7-tetrahydrobenzo[d]isoxazol-3-yl)-benzamide (20)]: the IC50 was greater than 100 µM. In the case of `ON=C1CCCc2c(-c3cc(Cl)c(O)cc3O)noc21` [3-(5-chloro-2,4-dihydroxyphenyl)-5,6-dihydro-4H-benzo[d]isoxazol-7-one oxime (15)] it was 0.8 µM.
